Measured values from patent US10562912B2 (C&C Research Laboratories, priority 2013, dated 2020).

Assays:
Assay type in all cases: cell-based
STAT3 = target: T1, STAT3 (Homo sapiens, UniProt P40763); assay: STAT3 reporter gene assay (luciferase), LNCaP stable cell line (pSTAT3-TA-luc), IL-6 stimulation
T1 construct: plasmid pSTAT3-TA-luc), which contains a stably operating STAT3 promoter; endogenous in cells
How it was run: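 LNCaP cells stably carrying pSTAT3-TA-luc, in RPMI1640 with 3% DCC-FBS, were treated with compound and then stimulated with 10 ng/mL IL-6 for 24–48 h at 37 °C. Luciferase activity was measured in lysates. A parallel plate measured viability by CellTiter-Glo, with stimulated 0.1% DMSO wells as the positive control.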

MDA-MB-231 = assay: Cell growth inhibition assay, breast cancer cell line MDA-MB-231; settings: Homo sapiens; MDA-MB-231 breast cancer cell line, 5,000 cells/well
LNCaP = assay: Cell growth inhibition assay, prostate cancer cell line LNCaP (medium with 10 ng/mL IL-6); settings: Homo sapiens, medium supplemented with 10 ng/mL of IL-6, 10,000 cells/well
DU-145 = assay: Cell growth inhibition assay, prostate cancer cell line DU-145; settings: Homo sapiens, DU-145 prostate cancer cell line
How it was run: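 Cancer cells, counted and seeded at 3,000 (DU-145, HCT116) or 5,000 (SW626) cells/well, received graded compound concentrations. Plates incubated 72–96 h at 37° C. with 5% CO2 were then assayed with CellTiter-Glo.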

HEL92.1.7 = assay: Cell growth inhibition assay, blood cancer cell line HEL92.1.7; settings: Homo sapiens, HEL 92.1.7, HEL92.1.7 blood cancer cell line
How it was run: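 Cells were seeded at 3,000/well (HCT116, DU-145) or 5,000/well (SW626 and the others) and exposed to serial compound dilutions for 72 to 96 h at 37 °C under 5% CO2. Viability was read as CellTiter-Glo luminescence against 0.1% DMSO and cell-free wells.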

T1 sequence (P40763 whole entry): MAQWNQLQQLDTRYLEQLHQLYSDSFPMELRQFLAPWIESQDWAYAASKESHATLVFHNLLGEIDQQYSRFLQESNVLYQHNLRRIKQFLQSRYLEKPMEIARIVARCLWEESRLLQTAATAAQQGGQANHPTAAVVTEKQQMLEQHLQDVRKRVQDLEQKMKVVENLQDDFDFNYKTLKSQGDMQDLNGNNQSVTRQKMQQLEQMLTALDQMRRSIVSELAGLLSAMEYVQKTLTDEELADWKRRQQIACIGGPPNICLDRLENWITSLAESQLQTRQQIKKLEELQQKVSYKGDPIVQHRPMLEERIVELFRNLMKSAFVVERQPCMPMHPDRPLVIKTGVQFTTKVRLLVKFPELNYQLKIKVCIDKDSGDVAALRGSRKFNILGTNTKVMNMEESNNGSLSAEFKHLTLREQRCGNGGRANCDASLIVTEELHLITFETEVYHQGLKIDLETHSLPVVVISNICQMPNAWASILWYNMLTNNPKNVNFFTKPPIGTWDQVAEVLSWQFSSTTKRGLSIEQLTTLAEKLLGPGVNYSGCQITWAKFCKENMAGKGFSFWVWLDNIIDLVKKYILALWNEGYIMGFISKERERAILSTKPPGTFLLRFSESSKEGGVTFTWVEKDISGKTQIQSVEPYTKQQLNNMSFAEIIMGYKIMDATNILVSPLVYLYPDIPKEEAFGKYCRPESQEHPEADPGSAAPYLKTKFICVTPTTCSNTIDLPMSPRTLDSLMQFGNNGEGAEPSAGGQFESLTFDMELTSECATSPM

IC50 (STAT3) [µM]	IC50 (MDA-MB-231) [µM]	IC50 (LNCaP) [µM]	IC50 (DU-145) [µM]	IC50 (HEL92.1.7) [µM]	SMILES
0.12	0.068	0.29	0.25	1.8	CC(C)(c1cc(Br)cc(NC(=O)c2cc3ccc(NS(C)(=O)=O)cc3[nH]2)c1)c1ccc(F)cc1F [Example 15, N-(3-bromo-5-(2-(2,4-difluorophenyl)propan-2-yl)phenyl)-6-(methylsulfonamido)-1H-indole-2-carboxamide]
0.076	0.027	0.067	0.06	0.28	CC(C)(c1cc(Br)cc(NC(=O)c2cc3cc(NS(C)(=O)=O)ccc3s2)c1)c1ccc(F)cc1F [Example 35, N-(3-bromo-5-(2-(2,4-difluorophenyl)propan-2-yl)phenyl)-5-(methylsulfonamido)benzo[b]thiophene-2-carboxamide]
0.38	0.7	1.01		1.7	CS(=O)(=O)Nc1ccc2cc(C(=O)Nc3cccc(-c4ccc(F)cc4F)c3)[nH]c2c1 [Example 270, N-(2′,4′-difluoro-[1,1′-biphenyl]-3-yl)-6-(methylsulfonamido)-1H-indole-2-carboxamide]
0.4	0.11	2.5	0.57	2.7	CS(=O)(=O)Nc1ccc2cc(C(=O)Nc3cc(Br)cc(-c4ccc(F)cc4F)c3)[nH]c2c1 [Example 302, N-(5-bromo-2′,4′-difluoro-[1,1′-biphenyl]-3-yl)-6-(methylsulfonamido)-1H-indole-2-carboxamide]
0.067	0.001	0.072	0.03	0.24	CS(=O)(=O)Nc1ccc2sc(C(=O)Nc3cc(Br)cc(-c4ccc(F)cc4F)c3)cc2c1 [Example 305, N-(5-bromo-2′,4′-difluoro-[1,1′-biphenyl]-3-yl)-5-(methylsulfonamido)benzo[b]thiophene-2-carboxamide]
0.15	0.1	0.014		0.49	CN(c1ccc2cc(C(=O)Nc3cccc(-c4ccc(F)cc4F)c3)[nH]c2c1)S(C)(=O)=O [Example 344, N-(2′,4′-difluoro-[1,1′-biphenyl]-3-yl)-6-(N-methylmethylsulfonamido)-1H-indole-2-carboxamide]
0.066		0.074	0.055	0.15	CS(=O)(=O)Nc1ccc2sc(C(=O)Nc3cc(Cl)cc(Oc4ccc(Cl)cc4)c3)cc2c1 [Example 445, N-(3-chloro-5-(4-chlorophenoxy)phenyl)-5-(methylsulfonamido)benzo[b]thiophene-2-carboxamide]
